Molecules are shown by their SMILES. In brackets after ≈: the same amount, converted by molar mass. Read-outs that look alike come from different tables or passages of the source.

This note sets out measurements from patent US20100210017A1, “COMPOSITIONS AND METHODS FOR ENHANCING TOLERANCE FOR THE PRODUCTION OF ORGANIC CHEMICALS PRODUCED BY MICROORGANISMS” (priority 2007, published 2010).

What all share (assay type): cell-based
In experiment [1] the test system is E. coli (vector control; clone expressing aroH mutant). Description: 24 hour minimum inhibitory concentration of 3-HP in M9 minimal media. The note with it: Escherichia coli. The method, then: By use of the SCALEs methodology, a number of genetic targets for alleviating growth inhibition in the presence of 3-HP have been identified. […] A clone was constructed containing the tyrA-aroF operon and was cultured in the presence of 20 g/L 3-HP. Increased copy of this region partially alleviated growth inhibition, conferring a 15% increase in specific growth. […] One method to bypass this inherent control was obtaining an inducible feedback resistant aroH mutant that will increase the conversion of E-4-P while maintaining activity in the presence of increasing pools of downstream products, thus alleviating growth inhibition due to impaired synthesis of necessary byproducts of the chorismate pathway. […] In addition, the 24 hour minimum inhibitory concentration of 3-HP (the minimum concentration to stop visible growth at 24 hours) in M9 minimal media increased from 25 g/L for a vector control to 40 g/L for an E. coli clone expressing this aroH mutant. In certain embodiments herein, it is contemplated that the aroH mutant can be of use alone, or in combination with other genetic manipulations or selection to increase tolerance of 3-HP production in microorganisms.

Experiment [2] deals with Escherichia coli strain Mach1-T1^R containing pSMART-LCKAN empty vector. Description: Growth confirmations: media supplementation in presence of 3-HP. The note with it: for effect on specific growth in the presence of 3-HP: supplementation of the growth medium, 3-HP present. The text has this: Some methods concern wild-type Escherichia coli K12 (ATCC # 29425) used for the preparation of genomic DNA. Genomic libraries were constructed using the pSMART-LCKAN (Lucigen, Middleton, Wis.). Libraries were introduced into Escherichia coli strain Mach1-T1^R (Invitrogen, Carlsbad, Calif.) for selections as previously detailed. Mach1-T1^R containing pSMART-LCKAN empty vector were used for all control studies. Growth curves were done in MOPS Minimal Media. In this example, the antibiotic concentration was 20 ug kanamycin/mL.
Overnight cultures of Mach1-T1^R+pSMART LC-KAN were inoculated into 5 mL LB+kanamycin. Growth curves were constructed by inoculating into 15 mL screw cap tubes containing supplements (Table 1) and 15 mL MOPS Minimal Media+kanamycin+3-HP from overnight culture. Cultures were incubated at 37° C. and optical density was monitored to an OD600>0.2. Cultures were then diluted to an exact OD600=0.2 and were used to inoculate cultures containing 15 mL MOPS Minimal Media+kanamycin+3-HP (pH=7.0) to an initial optical density of […] in order to minimize effects of growth in stationary phase. Optical density was monitored and recorded over the entire range of microaerobic growth in minimal media, or until a final OD600 0.5-0.6. Growth parameters were evaluated in terms of specific growth, OD600 at the culmination of the growth phase (approximately 14 hours), and OD600 at conclusion of maximum growth phase and final OD600 (24 hrs). To address specific intermediate limitations, associated chorismate pathway supplements were added to final concentrations listed in Table 1.
To confirm these findings, the culture medium was supplemented with products synthesized downstream of chorismate. The addition of each product individually stimulated growth, further confirming that the inhibition is occurring at, or prior to synthesis of chorismate (FIG. 3B). FIG. 3B represents growth confirmations: addition of products downstream of chorismate partially alleviate growth inhibition confirmed by increased specific growth (black) and increased OD600 at the culmination of the growth phase (grey). However, increasing the supplementation of several downstream products (tyrosine, phenylalanine, tryptophan) results in feedback inhibition of the first committed step to the chorismate super-pathway and will therefore reduce formation of other downstream products including ubiquinone, meniquinone, and tetrahydrofolate and limit the associated growth benefits.

In experiment [3] the test system is bacterial culture capable of producing 3-HP. The experiment can be described thus: 3-HP production with exogenously added tyrosine. The note with it: 0.2 mM tyrosine added to culture. As to the method:
In certain embodiments, exogenously added tyrosine can be added to a bacterial culture capable of producing 3-HP. In certain particular embodiments, tyrosine concentrations can be about 0.05 mM to about 0.5 mM. In one example, 0.2 mM tyrosine was added to a culture and the increase in 3-HP production was about 35%.

For the next experiment, the system named is E. coli Mach1. Description: Minimum inhibitory concentration of acrylic acid in minimal media. The note with it: Escherichia coli. The method, then: 3-HP composition obtained, for example, from TCI America for initial library selections and all subsequent growth confirmations can contain variable amounts of acrylic acid contamination. A minimum inhibitory concentration of acrylic acid for E. coli Mach1 grown in minimal media was determined to be around 0.6 g/L. In support that the tolerance mechanism specific to the chorismate super-pathway are exclusive to 3-HP toxicity, the minimum inhibitory concentrations of acrylic acid was determined to be 0.6 g/L for E. coli Mach1 grown in minimal media supplemented with addition of shikimate or homocysteine. Additionally, the minimal inhibitory concentration was determined to be 0.6 g/L for the feedback resistant aroH mutants grown in minimal media.

Consider `O=C(O)CCO` [3-HP, 3-hydroxypropionic acid], for which the MIC is 40000 µg/mL in experiment [1] (read-out: 24 hour minimum inhibitory concentration (minimum concentration to stop visible growth at 24 hours), M9 minimal media, E. coli clone expressing feedback resistant aroH mutant) and 25000 µg/mL in experiment [1] (read-out: 24 hour minimum inhibitory concentration (minimum concentration to stop visible growth at 24 hours), M9 minimal media, vector control).
Regarding `N[C@@H](Cc1ccccc1)C(=O)O` [Phenylalanine, phenylalanine], the “effect on specific growth in the presence of 3-HP” value (shortened to “effect on specific growth”) in experiment [2] was “detrimental effect”.
For `O=C(O)C1=C[C@@H](O)[C@@H](O)[C@H](O)C1` [Shikimate, shikimate], the “regeneration of growth compared with wild-type growth” value in experiment [2] (addition of shikimate to growth media under 3-HP stress) is given as “about 20%”. Further, in experiment [2], the “effect on specific growth” value was “dramatic increase in growth”.
As for `N[C@@H](Cc1ccc(O)cc1)C(=O)O` [Tyrosine, tyrosine], in experiment [2], the “effect on specific growth” value is recorded as “beneficial effect”. The “increase in 3-HP production” value in experiment [3] was “about 35%”.
On to `C=CC(=O)O` [acrylic acid], for which the MIC in the experiment with E. coli Mach1 (MACH1, E. coli Mach1, minimal media supplemented with shikimate or homocysteine, read-out: minimum inhibitory concentration) was 600 µg/mL (≈ 8.33 mM); with E. coli Mach1 (MACH1, E. coli Mach1 grown in minimal media, read-out: minimum inhibitory concentration), roughly 600 µg/mL (≈ 8.33 mM); in the experiment on E. coli Mach1 (MACH1, read-out: minimal inhibitory concentration, feedback resistant aroH mutants grown in minimal media), 600 µg/mL (≈ 8.33 mM).
